Laboratory results reported in US6642365B1, “Anti-(retro)viral conjugates of saccharides and acetamidino or guanidino compounds” (Yeda Research and Development Co. Ltd., priority 2001, dated 2003).
Entries after “also recorded” stand apart in the source; their conditions may differ.

Columns and labels:
R5 strain Ba-L = experiment: Virus-binding assay, MT-4 cells; type: cell-based, HIV-1; conditions: dose dependent; data not shown
Description: MT4 cells (5×10^5) were incubated with supernatant containing 1×10^5 pg of p24 antigen of wild type HIV-1 in the presence of different concentrations of the test compound. One hour after infection, cells were washed 3 times with PBS and p24 antigen bound to the cells was determined by a commercial ELISA test (Coulter, Spain).

HIV-1 NL4-3 = experiment: Anti-HIV assay, MTT, MT-4 cells; type: cell-based
Description: The HIV-1 strains NL4-3 and Ba-L and the CD4^+lymphocytic cell lines SUP-T1, MT-4 and MT-2 and P4-CCR5 MAGI cells were obtained from the MRC AIDS reagent program or the NIH, AIDS Research and Reference Reagent Program.
(§1) The cells were infected by incubation with different titers of the HIV-1 strains for 2 hrs at 37° C. in the presence or absence of the AAC of the invention. Then the cells were washed from the virus by centrifugation at 400 g and the supernatants were discarded. The cells were resuspended in culture medium, supplemented with different concentrations of the test compounds. The cells were allowed to proliferate for 5 days, the number of viable cells was quantified by a tetrazolium-based colorimetric method (CellTiter 96® AQueous One solution Cell Proliferation Assay, Promega). Anti-HIV activity in P4-CCR5 MAGI cells was done as follows: cells (1×10^5/ml) were infected with 10 ng/ml of p24 antigen of HIV-1 Ba-L in the presence of varying concentrations of the test compound. 24 hours post infection, cells were washed twice with PBS and resuspended in the medium containing the appropriate drug concentration. Five days after infection the cells were washed with PBS and evaluated for β-galactosidase activity.

MT-4 cells = experiment: Cytotoxicity in MT-4 cells, MTT; type: cell-based, human; conditions: viability of MT-4 cells, MTT assay
Description: as §1

TAR RNA = experiment: Gel-shift binding to TAR RNA; design: species or system HIV-1; conditions: for Kd: CD50 normalized to the reported conditions (Calnan et al., 1991 b), read-out: apparent Kd; for effect of ten-fold excess of yeast tRNA on complex formation with TAR: ten-fold excess of tRNA (100 ng per lane)
[1] = system: HIV-1 NL4-3 AMD3100-resistant; type: cell-based; conditions: for cross-resistance of NL4-3 AMD3100-resistant virus: relative to NL4-3
CXCR4 = CXCR4 (Homo sapiens, UniProt P61073); conditions: SDF-1α 20 ng/ml
Sequence of CXCR4 (P61073 whole entry): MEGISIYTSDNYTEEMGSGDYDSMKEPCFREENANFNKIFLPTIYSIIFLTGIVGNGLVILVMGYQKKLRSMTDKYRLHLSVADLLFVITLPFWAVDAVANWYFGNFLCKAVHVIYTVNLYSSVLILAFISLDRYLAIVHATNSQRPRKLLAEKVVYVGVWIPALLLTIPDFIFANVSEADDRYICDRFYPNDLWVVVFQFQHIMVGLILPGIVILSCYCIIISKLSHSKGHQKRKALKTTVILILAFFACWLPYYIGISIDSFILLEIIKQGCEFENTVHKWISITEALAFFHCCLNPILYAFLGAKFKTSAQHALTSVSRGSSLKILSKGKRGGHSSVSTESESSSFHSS

CCR5 = CCR5 (Homo sapiens, UniProt P51681); experiment: RANTES-induced intracellular calcium signal in THP-1, CCR5+ cells; conditions: data not shown
Sequence of CCR5 (P51681 whole entry): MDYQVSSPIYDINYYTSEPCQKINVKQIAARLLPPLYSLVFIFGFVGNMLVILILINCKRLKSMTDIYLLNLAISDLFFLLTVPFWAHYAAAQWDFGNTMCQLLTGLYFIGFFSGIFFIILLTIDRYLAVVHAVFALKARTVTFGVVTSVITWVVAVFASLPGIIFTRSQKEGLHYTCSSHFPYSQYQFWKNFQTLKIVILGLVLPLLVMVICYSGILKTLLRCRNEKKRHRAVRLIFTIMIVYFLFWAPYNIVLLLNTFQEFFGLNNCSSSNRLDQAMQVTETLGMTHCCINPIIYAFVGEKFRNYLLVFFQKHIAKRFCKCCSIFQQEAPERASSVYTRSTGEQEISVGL

HIV-1 IIIB = experiment: Anti-HIV assay, syncytium formation and tetrazolium colorimetric assay; type: cell-based; conditions: range over IIIb, 2D, AZT resistant, UC781 resistant and clade C HIV-1
Description: (§2) T-tropic HIV-1 laboratory strains IIIb, 2D as well as AZT-resistant and UC781-resistant strains were utilized in this study, along with clinical isolate (clade C). HIV-1 clinical isolate, resistant to AZT is a generous gift from Dr. Mark A. Wainberg, McGill AIDS Center, McGill University, Montreal, Canada.
(§3) MT-2 or MT-4 cells were cultured in RPMI 1640 supplemented with 10% fetal calf serum (FCS), 0.2 mM glutamine and penicilline/streptomycin/nistatin mixture. The cells were propagated in 96-well tissue culture plates at the density of 5×10^4 cells per well. Peripheral mononuclear blood cells (PMBC) were separated from whole blood samples by centrifugation in Ficoll gradient for 10 min at 400 g. PMBC were cultured in the same medium in 24-well tissue culture plates at the density of about 10^6 cells per well.

[2] = system: HIV-1 clinical isolate, resistant to AZT; experiment: as above; type: cell-based; conditions: average of two independent experiments in duplicates; read-out: EC50 HIV-1 AZTres
Description: as §2, §3

[3] = system: HIV-1 clinical isolate (clade C); experiment: as above; type: cell-based
Description: as §2, §3

[4] = system: MT-2 cells as well as PMBC lines ETH and IS; conditions: ratio CC50/EC50
Description: as §1

HIV-1 2D = type: cell-based
Description: as §2, §3

[5] = average of two independent experiments in duplicates

For `N=C(N)NCCCC(N)C(=O)NCC1OC(OC2C(NC(=O)C(N)CCCNC(=N)N)CC(NC(=O)C(N)CCCNC(=N)N)C(OC3OC(CO)C(O)C(NC(=O)C(N)CCCNC(=N)N)C3O)C2O)C(O)C(O)C1O` (centres unmarked) [R4K, Tetraargininamido-kanamycin A conjugate], the “binding of the R5 strain Ba-L to MT-4 cells” value (R5 strain Ba-L) was “inhibited the binding”, the EC50 (HIV-1 NL4-3) was 31 µM and the CC50 (MT-4 cells) was > 1130 µM. For the same compound, the CD50 (TAR RNA; 12 nM 32P-labeled TAR) was 2500 nM, the CD50 (TAR RNA; 50% binding, TAR RNA 12 nM) was 2500 nM and the Kd (TAR RNA) was 0.416 µM. For the same compound, the “effect of ten-fold excess of yeast tRNA on complex formation with TAR” value (TAR RNA) was “do not inhibit the binding”, the “cross-resistance of NL4-3 AMD3100-resistant virus” value [1] was > 4 fold and the “SDF-1α-dependent Ca2+ signal” value (CXCR4) was “inhibited; also recorded: blocked”. The “intracellular Ca2+ signal induced by RANTES” value (CCR5) was “did not inhibit”.

With “Triargininamido-gentamicin conjugate [R3G]” the “binding of the R5 strain Ba-L to MT-4 cells” value (R5 strain Ba-L) was “inhibited the binding”, the EC50 (HIV-1 NL4-3) was 15 µM and the EC50 (HIV-1 IIIB) was 6 to 10 µM. The EC50 [2] was 8 µM, the “inhibition of virus growth” value ([3]; MT-2 cells infected in presence of 20 μM R3G or 10 μM NeoR, then 3 days without AAC) was 30% and the EC50 [3, 5] was 6 µM. The CD50 (TAR RNA; 50% binding, TAR RNA 12 nM) was ~500 nM, the Kd (TAR RNA) was 0.083 µM and the “effect of ten-fold excess of yeast tRNA on complex formation with TAR” value (TAR RNA) was “do not inhibit the binding”. For the same compound, the TI50 [4] was 50-85, the EC50 ([1]; MTT assay, read-out: EC50 HIV-1 AMD 3100res) was > 133 µM and the “cross-resistance of NL4-3 AMD3100-resistant virus” value [1] was > 9 fold. The “antiviral effect in the presence of AZT” value (HIV-1 2D; HIV-1 2D and clade C) was “additive”, the EC50 (HIV-1 2D; [5]) was 10 µM and the “SDF-1α-dependent Ca2+ signal” value (CXCR4) was “inhibited; also recorded: blocked”. The “intracellular Ca2+ signal induced by RANTES” value (CCR5) was “did not inhibit”.
